Holding throughout (type): cell-based
In data set [1] the test system is HIV-1 Tat (p14, p16) and Gag. Nature of the data set: Rescue of Tat/Gag expression by proteasome inhibitor MG132. To be noted: MG132 10 μM for 8 h in the presence of compound. As for the experimental part: To assess effect of compounds on HIV-1 Tat stability, the decay of HIV-1 Tat levels was compared between DMSO-treated and compound-treated protein lysates in the presence of cycloheximide. In the first set of experiments, HIV-1 gene expression was induced with doxycylin (dox) for 24 h then 10 μg/mL cycloheximide was added to block new protein synthesis in combination with either DMSO or the compounds. Cells were harvested every 2 h and Tat protein levels measured by western blot. Quantification of the relative intensity of the detected bands was performed using ImageLab software (BioRad) and normalized to corresponding bands of the loading control (GAPDH) from at least three independent experiments. To determine whether the compounds’ effect on HIV-1 gene expression could be reversed by inhibition of the proteasome, compound treatment assay was performed as previously described with the addition of 10 μM MG132 (Sigma-Aldrich) to compound-treated cells 8 h prior to harvesting. Equal amounts of protein were run on 13 or 14% gels by SDS-PAGE, blotted and probed with antibodies for Tat and GAPDH. Quantification of the relative intensity of the detected bands was performed using ImageLab software (BioRad) and normalized to corresponding bands of the loading control (GAPDH) from at least three independent experiments.

Data set [2] is described as follows: Trypan blue exclusion, HeLa. To be noted: human, HeLa rtTA HIV∆Mls cells. As for the experimental part:
Effects of compound treatment on cellular metabolism was assessed by an XTT-based in vitro toxicology assay kit (Sigma-Aldrich) or Trypan blue exclusion (Life Technologies) as proxy for degree of cytotoxicity and expressed relative to DMSO control treatment. For measurement of cell viability using XTT, culture media was removed after 24, 72, and 96 h of compound treatment, replaced with 20% XTT solution and incubated at 37 °C in a 5% CO2 humidified incubator for 2–6 h, and relative cell viability was measured in compound treated cells relative to DMSO-treated cells. Cell viability measurements in CEM-GXR cells are described above.

Data set [3] deals with HIV-1 Gag expression in SupT1 NLESG cells. Nature of the data set: Gag (p24) ELISA in SupT1 24STNLESG cells after PMA induction. To be noted: for inhibition of HIV-1 gene expression in CD4+ SupT1 cells: Figure S1; for IC50: Human immunodeficiency virus 1, SUP-T1. As for the experimental part: Additional file 1: Figure S1. 791 and 833 Suppress HIV-1 Gene Expression in SupT1 24NESLG Cell Line. a Schematic of HIV-1 provirus used to generated the stably transduced SupT1 cell line. b Effect of 791 and 833 on Gag expression in SupT1 NLESG cells. Cells were treated with indicated concentrations of 791/833 then HIV-1 expression induced by PMA addition. Media harvested after 24 h was subsequently assayed using Gag (p24) ELISA. Cell viability was measured by an XTT assay. 892 was not active in this cell line at the concentrations tested Additional file 2: Figure S7. Effect of compounds on CEM-GXR cell viability. Evaluation of 791, 833, and 892 on CEM-GXR cell viability in the Guava ViaCount assay. Cells were analyzed after 24 h incubation with the compounds at the indicated concentrations ranging between 0–47 μM (791), 0–5 μM (833), or 0–62.5 μM (892). Results are expressed as the percentage (%) of viable cells relative to DMSO treatment ±SEM of two independent experiments performed in triplicate. Cytotoxic concentration resulting in the death of 50% of the host cells (CC50) relative to DMSO measured by ViaCount assay (Millipore) are listed in Table 1 Additional file 3: Table S1. Mutations in HIV-1 proteins associated with resistance to ARVs Additional file 4: Figure S2.Pattern of HIV-1 RNA splicing. Shown at the top is the organization of the HIV-1 proviral genome indicating the position of the multiple 5′ splice donor sites (SD1–SD4) and 3′ splice acceptor sites (SA1–SA7) used in splicing of pre-mRNA. In the middle is an illustration of the alternatively spliced RNAs generated by processing of the HIV-1 genomic RNA. Indicated are the common (open boxes) and alternative exons (closed boxes) used in the generation of the SS (4 kb) and MS (1.8 kb) viral RNAs. At the bottom is a list of the nomenclature used to refer to the exon composition of the individual RNAs generated for both the SS and MS classes of HIV-1 RNAs Additional file 5: Figure S3. Characterization of HeLa rtTA HIVGagGFP cell line. a Representative images of HeLa rtTA HIVGagGFP C7 cells treated with DMSO in the absence (uninduced) or presence (induced) of doxycyclin (N ≥ 3). Cells were viewed at 630X (oil immersion) magnification. Images are cropped to show a representative field of view. b The dose range of the compounds which inhibit HIV-1 GagGFP expression in HeLa rtTA HIVGagGFP C7 cells was measured by mean fluorescence intensity and expressed relative to fluorescence intensity in DMSO-treated samples (N ≥ 3, *p ≤ 0.05, **p ≤ 0.01, and ***p ≤ 0.001). The effect of the compounds on cellular metabolism at the indicated concentrations was measured using an XTT assay as a readout of viable cells and expressed relative to absorbance reads of DMSO-treated samples (N ≥ 3, *p ≤ 0.05, **p ≤ 0.01, and ***p ≤ 0.001). Error bars indicate standard error of the mean (SEM) Additional file 6: Figure S4. […] MG132 (10 μM) was added for 8 h as an additional control to determine whether inhibition of the proteasome prevents protein degradation. All uninduced (unind.) and 0 h samples were treated with DMSO. GAPDH serves as loading control. b Summary of effect of compounds on HIV-1 Tat degradation. Band volume intensities of both p14 and p16 Tat isoforms were calculated for each treatment relative to that of the DMSO control treatment and were then normalized to corresponding GAPDH bands (N ≥ 3, except for 833, N = 1–2). […]

The values below come from publication PMC5267425, “Identification of small molecule modulators of HIV-1 Tat and Rev protein accumulation” (Retrovirology, 2017).

Where only a bound is given, the exact number is not on record here.

Usually CC50 stands for the concentration at which the toxic effect on the cells reaches its halfway point. High values mean lower toxicity to the cells, low ones greater toxicity to the cells. For orientation: IC50 means the point on the concentration scale where inhibition reaches its midpoint. High values mean weaker potency in that assay, low ones greater potency in that assay.

Consider `O=C(NC(=S)NNC(=O)c1ccccc1O)c1ccc(-c2ccccc2)cc1` [Compound 833, N-([2-(2-hydroxybenzoyl)hydrazino]carbonothioyl}-4-biphenylcarboxamide], for which the “accumulation of both Tat isoforms on addition of MG132” value (shortened to “accumulation of both Tat isoforms”) in data set [1] was “significant accumulation”. The same compound yielded a CC50 in data set [2] above 10 µM. In data set [3], the “inhibition of HIV-1 gene expression in CD4+ SupT1 cells” value (“inhibition of HIV-1 gene expression” for short) is “maintained their inhibition” and half-maximal inhibition (IC50) was put at 3.5 µM.
On to `Cc1cc(NCc2cccnc2)n2ncc(-c3ccc(Cl)cc3)c2n1` [Compound 791, 3-(4-chlorophenyl)-5-methyl-N-(3-pyridinylmethyl)pyrazolo[1,5-a]pyrimidin-7-amine], for which, in data set [1], the “accumulation of both Tat isoforms” value is “significant accumulation”. Moreover, the CC50 in data set [2] was above 40 µM. In addition, in data set [3], the “inhibition of HIV-1 gene expression” value is recorded as “maintained their inhibition” and half-maximal inhibition (IC50) required 26 µM.
Consider `COc1ccc(C=NNC(=O)c2ccccc2O)cc1O` [Compound 892, 2-hydroxy-N′-(3-hydroxy-4-methoxybenzylidene)benzohydrazide], for which, in data set [1], the “accumulation of both Tat isoforms” value was “significant accumulation”. In addition, the CC50 in data set [2] was above 40 µM. In addition, the “inhibition of HIV-1 gene expression” value in data set [3] is “not active”.
